Measured values: a melting point compilation (Tetko et al.; mined from patent text by program, amines drawn as free bases though some values may be those of a salt)

| melting point [°C] | Compound |
| --- | --- |
| 136 to 137 | C=CC(=O)N(C)c1cccc2c(=O)c(C)c(-c3ccccc3)oc12 |
| 113 to 115 | Cc1noc(NS(=O)(=O)c2cccc(C(F)(F)F)c2)c1Br |
| 44 to 46 | CC(C)C(C(=O)O)N(Cl)Cl (stereo not drawn) |
| 154 to 155 | COc1cc(NS(C)(=O)=O)cc(OC)c1-c1ccc(C[C@H](NC(=O)c2c(Cl)cccc2Cl)C(=O)O)cc1 |
| 106 to 110 | CN(C)c1ccc(NC(=O)N(Cc2ccco2)C[C@H]2CCCC[C@H]2CN(Cc2ccco2)C(=O)Nc2ccc(N(C)C)cc2)cc1 |
| 195 to 198 | NNC(=O)c1cn2ccccc2n1 |
| 80 to 81.5 | CC(=O)N(CCCc1ccccc1)[C@H]1CC[C@H](c2ccc(OCc3ccccc3)cc2)CC1 |
| 290 to 291 | N=C(N)Nc1nc(-c2cccc([N+](=O)[O-])c2)no1 |
| 134 to 135 | CCOc1nn(-c2ccc(C(F)(F)F)cn2)cc1CCCOc1cccc(CC(=O)O)c1 |
| 45 to 47 | CC(C)(CO)CCCCCCCCCCCC(C)(C)CO |
| 83 to 84 | COc1ccc(-c2oncc2CO)cc1OC |
| 127 to 128 | N#CCCNC(=O)c1cc(F)cc(-c2cccc3cc(Cc4ccc(F)c(Cl)c4)sc23)c1 |
| 149 to 151 | c1ccc(Sc2c[nH]c3ccccc23)cc1 |
| 207 | COc1ccc(C(=O)N2CCCCc3cc(C4=NNC(=O)SC4C)ccc32)cc1OC (stereo not drawn) |
| 178 to 180 | CCOC(=O)C1C=NC(C)=C(c2ccccc2)C1=O (stereo not drawn) |
| 118 to 121 | CCN1CCc2ccc(Nc3ncc(Cl)c(NCC(C)(C)NS(C)(=O)=O)n3)cc2CC1 |
| 133 to 135 | COC(=O)NC1(Cl)C=CC=CN1CC(COc1cccc2ccccc12)OC(=O)OC (stereo not drawn) |
| 115 to 118 | OC(Cn1cncn1)c1ccc(Oc2ccc(Br)cc2)cc1Cl (stereo not drawn) |
| 97 to 98 | CCOC(=O)Cc1ccc2oc3ccccc3c(=O)c2c1 |
| 208 to 210 | COc1ccc2c(Nc3ccc(Cl)cc3F)c(C#N)cnc2c1 |
| 119 to 120 | CCOC(=O)C=Cc1csc(-c2ccc(OC)c(C(C)(C)C)c2)c1 |
| 188 to 189 | CS(=O)(=O)c1cc(OCc2ccccc2)c(C(=O)O)s1 |
| 176 to 179 | CC1(C)COC(=O)N1c1nc(-c2ccc([N+](=O)[O-])cc2)cs1 |
| 65 | C#CCn1ccc(CO)c1C#N |
| 131 to 134 | Cc1c(Sc2cccnn2)oc2ccc(Cl)cc12 |

| melting point [°C] | Compound |
| --- | --- |
| 208 to 210 | Nc1ccccc1NC(=O)c1cc2cccc(OCC(=O)O)c2o1 |
| 143 to 145 | CCOC(=O)c1cnc2ccc(OCC)nc2c1Nc1ccc(OCC(O)CO)cc1 (stereo not drawn) |
| 138 to 139 | COc1ncc(C2OC(CO)C(O)C2O)c(OC)n1 (stereo not drawn) |
| > 250 | O=C(Nc1sc2c(c1C(=O)O)CCOC2)c1nn[nH]n1 |
| 121 | Cc1cc(C)cc(N(CCCC(=O)O)Cc2ccc3nc(NCCCN4CCOCC4)n(Cc4nc(C)ccc4O)c3c2)c1 |
| 119 to 121 | CCCn1cc(Cc2ccc(C(=O)NS(=O)(=O)c3ccccc3C)cc2OC)c2cc(C=CCC(=O)N(C)C)ccc21 |
| > 200 | O=C1c2ccccc2C(=O)c2c(NC(=O)C3CC3)ccc(NC(=O)C3CC3)c21 |
| 103 to 107 | O=C(c1c[nH]c2cc(C#Cc3ccccc3)ccc12)C1CSC(c2cccnc2)N1 (stereo not drawn) |
| 65 to 67 | CC(C)n1nc2cccc([N+](=O)[O-])c2n1 |
| 186 to 189 | N#Cc1ccc(O[C@H]2CC[C@H](NC(=O)Nc3ccc(OC(F)(F)F)cc3)CC2)cc1 |
| > 300 | CCc1[nH]n(C2CCCC2)c2nc(-c3ccc(-n4ccnc4)cc3)nc(=O)c1-2 |
| 183 to 185 | CN(C)C1=CC(=NS(=O)(=O)c2cccs2)c2ccccc2C1=O |
| 158 to 160 | COC(=S)c1nc(C)c(N)nc1N |
| 185 to 186 | O=C(NCCO)c1cncc(-c2cccc3nn(Cc4cccc(C(F)(F)F)c4)cc23)c1 |
| 211 to 212 | Cc1nc(-c2ccc(Cl)cc2)c(CCC(=O)O)o1 |
| 204 to 205 | CS(=O)(=O)c1ccc(-n2nc(C(F)(F)F)cc2-c2nc3cc(F)ccc3s2)cc1 |
| 145 to 146 | Cc1cc(CN2CC(=O)N(c3cnn(Cc4c(C)noc4C)c3)C2=O)n(C)n1 |
| 168 | CN(C)c1ccc(C=Cc2ccc(N)cc2)cc1 |
| 150 to 152 | COc1cc2c(cc1OC)CC(Nc1ccc(O)cc1)CC2 (stereo not drawn) |
| 205 to 207 | CONC(=O)COc1c(-c2ccccc2)c(=O)[nH]c2cc(Cl)ccc12 |
| 90 | CCc1cccc(NC(=O)C=C(C)C)c1 |
| 182 to 185 | CCc1c(C(F)(F)F)nn(-c2ccc(S(N)(=O)=O)nc2)c1-c1ccc(-c2cscn2)c(F)c1 |
| 66 to 68 | CCCCCOC1CCN(S(=O)(=O)C=Cc2ccccc2)C1=O (stereo not drawn) |
| 312 | O=c1ccc2cccc(Oc3cc(-c4ccc(C(F)(F)F)cc4)ncn3)c2[nH]1 |
| 184 | C#CCN1C(=O)COc2cc(-c3nn(C)c(C(F)(F)F)c3Cl)c(F)cc21 |

| melting point [°C] | Compound |
| --- | --- |
| 139 to 140 | CCOC(CNC(=O)Nc1ccc(-n2cncn2)cc1)OCC |
| 212 to 214 | O=C(O)Cc1ccc2c(c1)C(=O)Cc1cccnc1S2 |
| 114 to 116 | CCN(CC)C(=O)Sc1cc(OC)c(OC)cc1C(=O)c1ccccc1 |
| 72 to 74 | COc1ccc(-c2cccc(-c3nc(C(C)C)[nH]c3-c3cccc(C)n3)c2)cn1 |
| 60 to 63 | COC(=O)c1cccc2nc(SCCN3CCN(CC(=O)Nc4c(SC(C)C)cc(C)nc4SC(C)C)CC3)oc12 |
| 190 to 193 | O=C(Oc1cccc2cnccc12)c1cc2ccccc2oc1=O |
| 138 to 140 | Cc1ccccc1-c1nc2n(c1-c1ccc(C3(NC(=O)OC(C)(C)C)CCC3)c(F)c1)-c1cccnc1Nc1ccccc1-2 |
| 97 to 99 | CCNC(=O)C1CC(=O)N(Cc2ccccc2)C1 (stereo not drawn) |
| 155 to 157 | COCCOC(=O)c1ccc(C(C(N)=O)C(C)c2ccccc2N2CCCCC2)cc1 (stereo not drawn) |
| 117 to 119 | CCCc1c(OCCCCCC(=O)c2ccc(OC)c(OC)c2)ccc(C(=O)OC)c1O |
| 154 to 156 | O=C(O)CNS(=O)(=O)c1ccc(N2CCC(c3ccccc3)CC2)cc1 |
| 207 to 208 | CC1CCC2(OC1)OC1CC3C4CCC5CC(OCCO)CCC5(C)C4CCC3(C)C1C2C (stereo not drawn) |
| 287 to 289 | Cc1cc(=O)n2nc(C)n(N)c2n1 |
| 207 to 209 | Cc1ccc(C(=O)Nc2c[nH]nc2C(=O)NCCC#N)cc1 |
| 208 to 210 | COc1c(F)c(F)c(N)c2c(=O)c(C(=O)O)cn(Cc3ccccc3)c12 |
| 79 to 81 | OC[C@H](O)CSc1ccccc1 |
| 146 to 147 | COc1ccc(C(=O)N2CCC(N(C)c3ccccc3Cl)c3ccccc32)cc1OC (stereo not drawn) |
| > 300 | CN1CCC(c2c(O)cc(O)c3c(=O)cc(-c4ccc(O)cc4Cl)oc23)C1CO (stereo not drawn) |
| 162 to 164 | COCCN1CCN(c2c(F)cc(N3C[C@H](CNC(C)=O)OC3=O)cc2F)CC1 |
| 229 | O=Cc1ccc(C#Cc2cc3ncnc(Nc4ccc(OCc5cccc(F)c5)c(Cl)c4)c3s2)o1 |
| 135 to 137 | CCOC(=O)CCNC(=O)c1[nH]c(C)c(-c2nc3ccc(C(=O)c4ccccc4)cc3[nH]2)c1C |
| 95 | CC(CN1CCCC1)N1c2ccccc2Sc2ccc(C(=O)NCc3ccccc3[N+](=O)[O-])cc21 (racemic) |
| 227 to 229 | CN(Cc1ccc(NC(=O)C2=Cc3cc(-c4ccc(OC5CCOCC5)cc4)ccc3S(=O)(=O)CC2)cc1)C1CCOCC1 |
| 168 to 170 | Cc1nc(Cl)c2cc3c(cc2n1)OCCO3 |
| 59 | CCCCc1ccc(-c2ccc(CCc3cc(F)cc(F)c3)cc2)cc1 |

| melting point [°C] | Compound |
| --- | --- |
| 54 to 55 | CCCCCC(=O)CCCC(=O)O |
| 115 to 119 | O[C@@H]1CN(CCc2ccccc2)CC[C@H]1c1ccccc1 (relative stereo) |
| 96 to 98 | CC(C)(C)OC(=O)Nc1cc(OCc2ccccc2)cc(OCc2ccccc2)c1 |
| 137 to 140 | CC(C)(C)OC(=O)NCCc1ccc(Oc2c(Cl)cnc(C(F)(F)F)c2Cl)cc1 |
| 108 to 110 | Cc1nc(-n2cc(CCCc3ccccc3)nn2)sc1C(=O)NCc1cccnc1 |
| 124 | O=C1CCC(c2cccc(F)c2)(c2cccc(F)c2)[C@@H]2CN(Cc3ccccc3)C[C@H]12 (racemic) |
| 32 to 36 | CCOC(=O)C1=C(C(=O)OCC)SCCS1 |
| 139 to 141 | CS(=O)CCC(=O)Nc1ccc(OCC(O)CO)cc1 (stereo not drawn) |
| 78 to 80 | N#CCNC(COCc1cc(C(F)(F)F)cc(C(F)(F)F)c1)C(c1ccccc1)c1ccccc1 (stereo not drawn) |
| 250 to 251 | O=C(Nc1c[nH]nc1C(=O)NCCc1c[nH]c2ccccc12)c1ccccn1 |
| 127 to 128 | CC(C)c1cc(C(=O)CI)cc(C(C)C)c1O |
| 137 to 139 | O=C(O)c1cccc2c1CCCc1ccccc1-2 |
| 181 to 183 | O=c1c(Cl)c(C(F)(F)F)nc(Nc2cc(C(F)(F)F)ccc2C(F)(F)F)n1C1CCCCC1 |
| 190 to 191 | CCCN(CCC)C(=O)Cn1c(=O)[nH]c2cnc(-c3ccccc3)nc21 |
| 160 to 168 | O=C(O)c1cc2cc(Cl)ccc2nc1N[C@@H](CC1CCCCC1)C(=O)O |
| 196 to 198 | O=C1CCC(N2C(=O)c3cccc(OCc4ccc(CN5CC6CCC(C5)O6)cc4)c3C2=O)C(=O)N1 (stereo not drawn) |
| 202 to 204 | Cc1cc(C2c3cc4c(cc3CC(C)NN2C(=O)NC(C)c2ccccc2)OCO4)ccc1[N+](=O)[O-] (stereo not drawn) |
| 109 to 110 | Fc1ccc(-c2cc(N3CCN(CC4CC4)CC3)nc3c2CCCCCC3)cc1 |
| 258 to 260 | N#CC(C(=O)Nc1ccccn1)C(=O)c1nn(-c2ccccc2)c2c1CSc1ccccc1-2 (stereo not drawn) |
| 177 to 179 | N#Cc1ccc(C=NO)c(Cl)c1 |
| 185 to 189 | C[C@@H](N(CCO)C(=O)c1ccc(C(F)(F)F)cc1)[C@](O)(Cn1cncn1)c1ccc(Cl)cc1Cl (relative stereo) |
| 72 | CCCCc1c(-c2cnccn2)ssc1=S |

| Compound | melting point [°C] |
| --- | --- |
| N#Cc1ccc(N2CCC(F)(F)C2)c2ccccc12 | 68 to 69 |
